From ChEMBL document CHEMBL3137667, “[Drug-induced liver injury; fourteenth updated edition of the bibliographic database of liver injuries and related drugs]” (Gastroenterol Clin Biol, 2004)

Key:
[1] = human
[2] = human; remark: listed apart in the source
[3] = human, serum
[4] = human; remark: listed apart in the source
[5] = Highest frequency of acute liver toxicity observed during clinical trials, expressed as a percentage. [column '% AIGUE' in source]; settings: human
[6] = human; remark: listed apart in the source
[7] = human; remark: listed apart in the source
[8] = Highest frequency of moderate liver toxicity observed during clinical trials, expressed as a percentage. [column '% BIOL' in source]; settings: human
[9] = Times to onset, minimal and maximal, observed in the indexed observations. [column 'DELAI' in source]; settings: human
[10] = human; remark: listed apart in the source
[11] = Comments (NB not yet translated). [column 'COMMENTAIRES' in source]; settings: human
[12] = human; remark: listed apart in the source
[13] = human, serum; remark: listed apart in the source
[14] = human; remark: listed apart in the source
[15] = human; remark: listed apart in the source
[16] = human, serum, 4383 h
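For Hepatotoxicity (association with vascular disease) in this document: count of indexed literature references reporting vascular liver injury in humans, e.g. peliosis hepatitis, hepatic veno-occlusive disease or Budd-Chiari syndrome.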
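For Hepatotoxicity (benign tumour) in this document: value is a count of indexed literature references citing a benign tumour confirmed by histopathology.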
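For Hepatotoxicity (choleostasis) in this document: human cholestatic liver injury, shown by histopathology or by peak ALT or AST elevation over alkaline phosphatase ratio below 2, value counts indexed literature reports.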
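For Hepatotoxicity (chronic liver disease) in this document: chronic liver injury confirmed by histopathology or persistently raised serum aminotransferase activity beyond 6 months, value given as the count of indexed literature references.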
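For Hepatotoxicity (cirrhosis) in this document: value is a count of indexed literature references reporting cirrhosis confirmed by histopathology.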
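For Hepatotoxicity (cytolytic) in this document: human cytolytic liver injury, shown by histopathology or by a ratio above 5 of peak ALT or AST elevation to alkaline phosphatase elevation, value counts indexed references.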
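For Hepatotoxicity (granulomatous hepatitis) in this document: value is a count of indexed literature references reporting granulomatous liver disease confirmed by histopathology.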
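For Hepatotoxicity (malignant tumour) in this document: malignant tumour confirmed by histopathology, value gives the count of indexed literature references reporting it.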
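For Hepatotoxicity (severe hepatitis) in this document: human clinical data: severe hepatitis, meaning potentially life-threatening liver failure or clinically observed cases, the value counts how many indexed literature references report it.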
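For Hepatotoxicity (steatosis) in this document: steatosis confirmed by histopathology, value is the count of indexed references.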

Row | SMILES | Hepatotoxicity (malignant tumour) [1] | Hepatotoxicity (acute) [3] | Hepatotoxicity (choleostasis) [4] | Hepatotoxicity (cytolytic) [6] | Hepatotoxicity (benign tumour) [7] | Hepatotoxicity (time to onset) [9] | Hepatotoxicity (association with vascular disease) [10] | Hepatotoxicity (comment) [11] | Hepatotoxicity (steatosis) [12] | Hepatotoxicity (moderate) [13] | Hepatotoxicity (cirrhosis) [14] | Hepatotoxicity (granulomatous hepatitis) [15] | Hepatotoxicity (chronic liver disease) [16] | Hepatotoxicity (severe hepatitis) [2] | Hepatotoxicity (acute) [5] [%] | Hepatotoxicity (moderate) [8] [%] | other results
1 | CCCCC1=NC2(CCCC2)C(=O)N1Cc1ccc(-c2ccccc2-c2nnn[nH]2)cc1 [IRBESARTAN] | 0 | 2 | 2 | 0 | 0 | 5 days - 4 weeks | 0 | CHOLESTASE_PROLONGEE | 0 | 2 | 0 | 0 | 0 | – | – | – | Hepatotoxicity (severe hepatitis) ([2]; Liver): 0; Hepatotoxicity (acute) ([5]; Liver): 0%; Hepatotoxicity (moderate) ([8]; Liver): 4.3%
2 | C[C@]12COC(=O)C[C@@H]1CC[C@@H]1[C@@H]2CC[C@@]2(C)[C@H]1CC[C@]2(C)O [OXANDROLONE] | 0 | 2 | 2 | 0 | 1 | 6 months | 0 | HNF | 0 | 0 | 0 | 0 | 0 | 0 | 0 | 0 | –
3 | CC(C)(Oc1ccc(C2CC2(Cl)Cl)cc1)C(=O)O (stereo not drawn) [CIPROFIBRATE] | 0 | 3 | 1 | 2 | 0 | 24 days - 15 months | 0 | AC_ANTI-N | 0 | 7 | 1 | 0 | 1 | 1 | 0 | 7.7 | –
4 | C#CCN(C)[C@H](C)Cc1ccccc1 [SELEGILINE] | 0 | 1 | 1 | 0 | 0 | 3 months | 0 | CHOLESTASE_PROLONGEE | 0 | 2 | 0 | 0 | 0 | 0 | 0 | 4 | –
5 | CC(=O)[C@@]1(O)CC[C@H]2[C@@H]3C[C@H](C)C4=CC(=O)CC[C@]4(C)[C@H]3CC[C@@]21C | 0 | 3 | – | – | 0 | 1 month - 1.7 years | 0 | LITHIASE | 0 | 5 | 0 | – | 0 | – | – | – | Hepatotoxicity (severe hepatitis) ([2]; Liver): 1; Hepatotoxicity (choleostasis) ([4]; Liver): 1; Hepatotoxicity (acute) ([5]; Liver): 3.3%; Hepatotoxicity (cytolytic) ([6]; Liver): 1; Hepatotoxicity (moderate) ([8]; Liver): 4.9%; Hepatotoxicity (granulomatous hepatitis) ([15]; Liver): 0
6 | CC(C)(Oc1ccc(CCNC(=O)c2ccc(Cl)cc2)cc1)C(=O)O [BEZAFIBRATE] | 0 | 2 | 0 | 1 | 0 | 3 weeks - 3 months | 0 | I/PERHEXILINE | 0 | 5 | 0 | 0 | 0 | 1 | 0 | 10 | –
7 | CCN1CCCC1CNC(=O)c1cc(S(N)(=O)=O)ccc1OC (stereo not drawn) [SULPIRIDE] | 0 | 3 | 1 | 0 | 0 | 1 week - 3 months | 0 | DUCTOPENIE | 0 | 3 | 0 | 0 | 0 | 1 | 0 | 4 | –
8 | CC(=O)[C@]1(O)Cc2c(O)c3c(c(O)c2[C@@H](O[C@H]2C[C@H](N)[C@H](O)[C@H](C)O2)C1)C(=O)c1ccccc1C3=O [IDARUBICIN] | 0 | 1 | 0 | 1 | 0 | 8 days - 6 months | 1 | HCF MVO REACTIVATION_HVB | 0 | 7 | 0 | 0 | 0 | 2 | 0 | 18.2 | –
9 | CC(Cc1ccccc1)NN (stereo not drawn) [PHENIPRAZINE] | 0 | 7 | 0 | 7 | 0 | 2 weeks - 7 months | 0 | RC/NIALAMIDE/IPRONIAZIDE | 0 | 0 | 0 | 0 | 0 | 5 | 0 | 0 | –
10 | CN(C)CC/C=C1\c2ccccc2CSc2ccccc21 [DOTHIEPIN] | 0 | 3 | 2 | 2 | 0 | 40 days - 69 days | 0 | RC/PAROXETINE | 1 | 1 | 0 | 0 | 0 | 0 | 0 | 4.5 | –
11 | O=C(O)c1cc(=O)c2c(OCC(O)COc3cccc4oc(C(=O)O)cc(=O)c34)cccc2o1 [CROMOLYN] | 0 | 0 | 0 | 0 | 0 | 4 months - 10 months | 0 | #CBP | 0 | 1 | 1 | 1 | 0 | 0 | 0 | 16.7 | –
12 | CCCCC1C(=O)N(c2ccccc2)N(c2ccc(O)cc2)C1=O (stereo not drawn) [OXYPHENBUTAZONE ANHYDROUS] | 0 | 9 | 3 | 4 | 0 | 1 week - 2 months | 0 | RC/PHENYLBUTAZONE | 1 | 3 | 1 | 5 | 0 | 3 | 0 | 0 | –
13 | CC/C(=C(/CC)c1ccc(O)cc1)c1ccc(O)cc1 [DIETHYLSTILBESTROL] | 6 | 5 | 4 | 0 | 0 | 4 days - 15 years | 1 | ANGIOSARCOME RC/TAMOXIFENE | 0 | 3 | 0 | – | 0 | 1 | 0 | 19 | Hepatotoxicity (granulomatous hepatitis) ([15]; Liver): 0
